Key:
[1] = Comparative, open-label, controlled clinical trial of Orlistat/L-Carnitine (OL-CA) vs Orlistat (OL) and L-Carnitine (CA) in adults with overweight above 10 %; assay type: in vivo, human; conditions: end of treatment (12 weeks), n = 20 per group; for subjects who reached a normal weight: one capsule a day
Procedure: A randomised, parallel, cross-over, prospective, open-label clinical trial.
Male and/or female subjects aged above 18 years, with overweight above 10 % their ideal weight.
• Group 1. Orlistat (OL) 120 mg, one capsule a day for 12 weeks. • Group 2. L-Carnitine (CA) 600 mg, one capsule a day for 12 weeks. • Group 3. Orlistat 120 mg and L-Carnitine 600 mg (OL-CA) in one capsule a day for 12 weeks.
• No other drug therapy was permitted for obesity and overweigh using any administration route during the clinical trial.
• Three treatment groups with random distribution 1:!;1
• Male and/or female subjects over 18 years of age. • Overweight above 10 % of their ideal weight or a Body Mass Index (BMI) of 28 kg/m2 or higher. • Poor response to previous diet therapy. • No participation in a clinical trial with a test drug or device for 30 days before the planned start of treatment. • Patients with or without risk factors associated with obesity (type 2 diabetes and systemic hypertension). • Following a nutritionally balanced and moderately hypocaloric plan containing about 30 % of calories from fat. • Women with child-bearing potential should use some contraceptive method during the treatment.
• Under 18 years of age • History of hypersensitivity to the components of the formula • Patients with any organ failure • Patients with a history of intolerance to lactose • Patients with a history of bowel malabsorption syndrome and cholestasis • Patients with suspected or diagnosed pancreatic disorder • Pregnant and/or nursing women • Diagnosed or suspected thyroid disorder • Patients currently on anticoagulants or cyclosporine and amiodarone.
Randomisation in to the study was stratified at a 1:1:1 ratio. The subjects were classified according to their body mass index. • Group A, 20 subjects with overweight, BMI of 25 to 29.9 kg/m2 • Group B, 20 subjects with grade 2 obesity, BMI of 30-39 kg/m2 • Group C, 20 subjects with grade 3 obesity BMI above 40 kg/m2 With regard to the BMI, the following values and interpretation are given • BMI 20 to 25 kg/m^2 = normal weight • BMI 25 to 29.9 kg/m^2 = Overweight • BMI 30 to 39 kg/m^2 - Grade 2 obesity • BMI above 40 kg/m^2 = Grade 3 obesity

[2] = 3,000 mg/day of L-Carnitine, 10 weeks, calorie restriction, increased physical activity; cited from earlier work
[3] = 2,000 mg/day of L-Carnitine, 26 weeks, diet of 1,400 to 1,600 Kcal/day; cited from earlier work
[4] = 15 mg/kg/day of L-Carnitine, 26 weeks, cited from earlier work

SMILES | patients reaching grade 2 obesity [1] | patients reaching grade 2 obesity (number) [1] | subjects who documented overweight [1] | subjects who documented overweight (number) [1] | subjects who reached a normal weight (number) [1] | subjects with grade 3 obesity [1] | subjects with grade 3 obesity (number) [1] | subjects who reached a normal weight [1] | weight loss between the two groups [2] | weight loss or differences between the groups at the end of the study [3] | weight loss in the treatment group ([4]; restriction of 1,500 Kcal in diet, 60 subjects with obesity) | weight loss (significance) [4]
C[N+](C)(C)C[C@H](O)CC(=O)[O-] [CA, L-Carnitine] | 75% | 15 subjects | 15% | 3 subjects | one | 5% | 1 subjects | 5% | No significant weight loss | No significant weight loss or differences between the groups | 1.9 kg | not significant
CCCCCCCCCCC[C@@H](C[C@@H]1OC(=O)[C@H]1CCCCCC)OC(=O)[C@H](CC(C)C)NC=O [OL] | 65% | 13 subjects | 10% | 2 subjects | one | 20% | 4 subjects | 5% |  |  |  | 
